According to patent US8962685B2 (Vireo Systems Inc., priority 2003, dated 2015):

Assays:
[1] = cited from earlier work
[2] = Stability of creatine in aqueous solution over 45 days (Example 4)
Description: With regard to latent product storage, standard shelf-life according to the FDA is considered to be the time it takes for 10 percent of the starting material to degrade in a given sample. […] Each data point is representative of three different samples. […] The creatine content of each sample was examined over a 45-day period.

[3] = Plasma uptake and relative bioavailability after oral administration in healthy human volunteers (Example 3); conditions: for Plasma creatine following administration: oral 5 gram dose, versus pre-dose
Description: The order of treatment was randomly assigned and there was a 1-week wash out period between creatine treatments.

Structure (SMILES) | standard degradation time in water [1] | shelf-life in aqueous solution (time for 10 percent to degrade) ([2]; 1.5 mg/mL) | original creatine remaining in the aqueous solution ([2]; buffer, 1080 h, 1.5 mg/mL) | increase in bioavailability ([3]; in vivo, po) | Plasma creatine following administration [3] | original creatine remaining in the aqueous solution ([2]; room temperature (about 21° C.), 45 days, initially 1.5 mg/mL)
CCOC(=O)CN(C)C(=N)N [creatine ethyl ester] | less than one | – | – | – | – | –
CN(CC(=O)O)C(=N)N.Cl [creatine HCl, creatine hydrochloride] | – | ≥ 45 days | approximately 95% | approximately 50% | significantly elevated | –
CN(CC(=O)O)C(=N)N.O [creatine monohydrate] | – | – | – | – | significantly elevated | about 75%
